Reference: patent US8815872B2, “Macrocyclics pyrimidines as aurora kinase inhibitors” (Merck Patent GmbH, priority 2008, dated 2014)

Assays:
Aurora A = target: T1, Aurora A (Homo sapiens, UniProt O14965); experiment: Aurora A enzyme assay (Caliper LC3000 mobility shift); type: biochemical
T1 construct: N-terminal GST fusion with full length Aurora A (1-403 amino acids); purchased Carna Biosciences 05-101
T1 sequence (O14965 1-403): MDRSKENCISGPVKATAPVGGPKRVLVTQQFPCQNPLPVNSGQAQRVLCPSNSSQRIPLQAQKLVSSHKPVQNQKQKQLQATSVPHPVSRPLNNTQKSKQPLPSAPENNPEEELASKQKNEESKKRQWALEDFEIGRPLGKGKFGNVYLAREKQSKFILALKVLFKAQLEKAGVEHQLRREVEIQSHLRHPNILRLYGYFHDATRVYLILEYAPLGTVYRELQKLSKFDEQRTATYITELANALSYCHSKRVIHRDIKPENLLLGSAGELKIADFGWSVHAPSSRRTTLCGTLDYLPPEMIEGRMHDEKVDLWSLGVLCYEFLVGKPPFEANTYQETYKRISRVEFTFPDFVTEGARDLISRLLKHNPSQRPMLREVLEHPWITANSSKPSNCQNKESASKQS
Method: (§1) The Aurora and other kinase assays described here were performed on two Caliper Life Sciences systems, the LC3000 and the Desktop Profiler. These provide data on enzyme activity via measurement of the relative amounts of phosphorylated or unphosphorylated fluorescently labelled substrate peptide at the end of an enzymatic reaction. These different states of peptide are resolved by applying a potential difference across the sample. The presence of a charged phosphate group on the product (as opposed to the substrate) causes a different peptide mobility between the two peptides. This is visualized by excitation of a fluorescent label on the substrate and product peptides and represented as peaks within the analysis software.
For example, in order to measure inhibitor activity of Aurora A inhibitors in the Caliper Life Sciences LC3000, a TTP Mosquito liquid handling instrument was used to place […] of an appropriate concentration of inhibitor in 100% DMSO (for a dose response curve calculation) into each well of a 384-well plate. To this reaction components were added to a final volume of 25 μl: • 0.067 ng/μl GST-Aurora A (Carna Biosciences 05-101. N-terminal GST fusion with full length Aurora A (1-403 amino acids), accession number NP_940835.1). • 15 μM ATP (Fluka, 02055) • 1 mM DTT (Sigma, D0632) • 1 mM MgC12 (Sigma, M1028) • 1 μM substrate peptide (sequence FITC-LRRASLG-(CONH2), synthesized by Tufts Peptide Synthesis service. • 100 mM HEPES pH 7.5 (Calbiochem, 391338) • 0.015% Brij-35 (Sigma, B4184)
The reaction was incubated for 90 min at 25° C., and then stopped by the addition of 70 μl of Stop buffer (100 mM HEPES pH 7.5, 0.015% Brij-35, 10 mM EDTA (Sigma, E7889)).
The plate was read on a Caliper LC 3000 in an Off-Chip mobility shift assay format, using the following parameters for a 12-sipper chip: screening pressure −1.8 psi, upstream voltage −2700, downstream voltage −1000. These conditions cause unphosphorylated substrate and phosphorylated product peptide to resolve as separate peaks allowing direct measurement of percentage of conversion of substrate to product. The percent conversion was plotted against concentration of inhibitor to produce a sigmoidal dose response curve, from which an IC50 was calculated using XLFit for Microsoft Excel.

Aurora B = Aurora B (Homo sapiens, UniProt Q96GD4); experiment: Aurora B enzyme assay (Caliper); type: biochemical
Chain of Aurora B (Q96GD4 whole entry): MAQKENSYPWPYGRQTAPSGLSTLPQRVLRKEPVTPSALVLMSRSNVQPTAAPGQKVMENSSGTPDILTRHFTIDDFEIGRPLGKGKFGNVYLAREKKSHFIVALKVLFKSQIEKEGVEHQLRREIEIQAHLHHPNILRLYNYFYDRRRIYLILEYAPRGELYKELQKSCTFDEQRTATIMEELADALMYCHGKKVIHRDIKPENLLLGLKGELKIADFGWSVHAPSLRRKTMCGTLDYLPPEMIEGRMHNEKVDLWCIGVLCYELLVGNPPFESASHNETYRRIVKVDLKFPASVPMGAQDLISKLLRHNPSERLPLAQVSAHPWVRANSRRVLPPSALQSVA
Method: as §1

A549 = experiment: Cellular activity A549; type: cell-based; conditions: Homo sapiens
Method: (§2) The susceptibility of a particular cell to treatment with the compounds according to the invention was determined by in vitro tests. Typically, a culture of the cell was combined with a compound according to the invention at various concentrations for a period of time that was sufficient to allow the active agents to induce cell death or to inhibit migration, usually between about one hour and one week. In vitro testing was carried out using cultivated cells from a biopsy sample. The viable cells remaining after the treatment then were counted.

MiaPaca2 = experiment: Cellular activity MiaPaca2; type: cell-based; conditions: Homo sapiens, MIA PaCa-2
Method: as §2

Structure (SMILES) | IC50 (Aurora A) [nM] | IC50 (Aurora B) [nM] | IC50 (A549) [nM] | IC50 (MiaPaca2) [nM]
Fc1cnc2nc1NC1CCCC(C1)OC/C=C\COc1cccc(c1)N2 (centres unmarked) | 101 to 1000 | 101 to 1000 | – | –
Fc1cnc2nc1N[C@H]1CCC[C@@H](C1)OCCCCOc1cccc(c1)N2 | 1000 to 6250 | – | – | –
Fc1cnc2nc1N[C@@H]1CCC[C@H](C1)OCCCCOc1cccc(c1)N2 | 101 to 1000 | – | – | –
O[C@@H]1COc2cccc(c2)Nc2ncc(F)c(n2)NC2CCCC(C2)OC[C@@H]1O (some centres unmarked) | 101 to 1000 | – | – | –
O[C@@H]1COC2CCCC(C2)Nc2nc(ncc2F)Nc2cccc(c2)OC[C@@H]1O (some centres unmarked) | 101 to 1000 | – | – | –
Fc1cnc2nc1NC1CCC(CC1)OC/C=C/COc1cccc(c1)N2 | 101 to 1000 | – | – | –
Fc1cnc2nc1NC1CCC(CC1)OC/C=C\COc1cccc(c1)N2 | 101 to 1000 | > 6250 | – | –
CCC1CC2[C@H](O)C(O)COc3cccc(c3)Nc3ncc(F)c(n3)N[C@H]2[C@H]1C(N)=O (some centres unmarked) | 1000 to 6250 | – | – | –
NC(=O)[C@H]1C([C@@H](O)CO)CC2[C@H]1Nc1nc(ncc1F)Nc1cccc(c1)OC[C@H](O)[C@H]2O (some centres unmarked) | 1000 to 6250 | – | – | –
NC(=O)[C@H]1C([C@@H](O)CO)CC2C(O)[C@H](O)COc3cccc(c3)Nc3ncc(F)c(n3)N[C@H]21 (some centres unmarked) | 1000 to 6250 | – | – | –
NC[C@H]1[C@H]2C[C@H]3[C@H]1Nc1nc(ncc1F)Nc1cccc(c1)C(O)CS[C@@H]3C2 (some centres unmarked) | 1000 to 6250 | – | > 6250 | > 6250
NC(=O)[C@H]1[C@H]2C[C@H]3[C@H]1Nc1nc(ncc1F)Nc1cccc(c1)/C=C\S[C@@H]3C2 | 101 to 1000 | – | – | –
C=CC(=O)NC[C@H]1[C@H]2C[C@H]3[C@H]1Nc1nc(ncc1F)Nc1cccc(c1)C(O)CS[C@@H]3C2 (some centres unmarked) | 101 to 1000 | – | > 6250 | > 6250
NC(=O)[C@H]1[C@H]2C[C@H]3[C@H]1Nc1nc(ncc1F)Nc1cccc(c1)N(Cc1cccs1)C(=O)CS[C@@H]3C2 | 101 to 1000 | 1000 to 6250 | – | –
NC(=O)[C@H]1[C@H]2C[C@H]3[C@H]1Nc1nc(ncc1F)Nc1cc(ccc1O)C(=O)CS[C@@H]3C2 | 1000 to 6250 | 1000 to 6250 | – | –
Nc1ccc(/C=C/NC(=O)[C@H]2[C@H]3C[C@H]4[C@H]2Nc2nc(ncc2F)Nc2cccc(c2)C(=O)CS[C@@H]4C3)cc1 | 101 to 1000 | 101 to 1000 | > 6250 | > 6250
NC(=O)[C@H]1[C@H]2C[C@H]3[C@H]1Nc1nc(ncc1F)Nc1ccc(F)c(c1)CC(=O)O[C@@H]3C2 | 1000 to 6250 | 1000 to 6250 | – | –
NC(=O)[C@H]1[C@H]2C[C@H]3[C@H]1Nc1nc(ncc1F)Nc1cccc(c1)CCC(=O)O[C@@H]3C2 | 101 to 1000 | 101 to 1000 | 1000 to 6250 | 1000 to 6250
CC(=O)N1Cc2cccc(c2)Nc2ncc(F)c(n2)N[C@@H]2[C@@H]3C[C@@H](C[C@H]3C1)[C@@H]2C(=O)O | 1000 to 6250 | > 6250 | – | –
CN1CCN(c2ccc3cc2OCCN[C@@H]2C[C@@H]4C[C@H]2[C@@H](Nc2nc(ncc2F)N3)[C@H]4C(N)=O)CC1 | 101 to 1000 | 1 to 100 | 101 to 1000 | 101 to 1000
NC(=O)[C@H]1[C@H]2C[C@H]3[C@H]1Nc1nc(ncc1F)Nc1cccc(c1)NC(=O)CN[C@@H]3C2 | 1000 to 6250 | 101 to 1000 | – | –
NC(=O)[C@H]1[C@H]2C[C@H]3[C@H]1Nc1nc(ncc1F)Nc1cccc(c1)CCC(=O)N[C@@H]3C2 | 101 to 1000 | 101 to 1000 | 1000 to 6250 | 1000 to 6250
NC(=O)[C@H]1[C@H]2C[C@H]3[C@H]1Nc1nc(ncc1F)Nc1cccc(c1)CCN[C@@H]3C2 | 101 to 1000 | 1 to 100 | 1000 to 6250 | 1000 to 6250
NC(=O)[C@H]1[C@H]2C[C@H]3[C@H]1Nc1nc(ncc1F)Nc1cccc(c1)C(O)CN[C@@H]3C2 (some centres unmarked) | 101 to 1000 | 1 to 100 | 1000 to 6250 | 1000 to 6250
NC(=O)[C@H]1[C@H]2C[C@H]3[C@H]1Nc1nc(ncc1F)Nc1cccc(c1)CS(=O)(=O)N[C@@H]3C2 | 101 to 1000 | 101 to 1000 | – | –
NC(=O)[C@H]1[C@H]2C[C@H]3[C@H]1Nc1nc(ncc1F)Nc1cccc(c1)S(=O)(=O)NC(=O)N[C@@H]3C2 | 101 to 1000 | – | – | –

The next lines start with the values.

IC50 (Aurora A) [nM] | IC50 (Aurora B) [nM] | IC50 (A549) [nM] | IC50 (MiaPaca2) [nM] | Structure (SMILES)
101 to 1000 | 101 to 1000 | – | – | Fc1cnc2nc1NC1CCCC(C1)OC/C=C/COc1cccc(c1)N2 (centres unmarked)
1 to 100 | – | 101 to 1000 | 101 to 1000 | NC(=O)[C@H]1[C@H]2C[C@H]3[C@H]1Nc1nc(ncc1F)Nc1cccc(c1)C(O)CS[C@@H]3C2 (some centres unmarked)
1 to 100 | 1 to 100 | 1000 to 6250 | 1000 to 6250 | NC(=O)[C@H]1[C@H]2C[C@H]3[C@H]1Nc1nc(ncc1F)Nc1cccc(c1)CC[S+]([O-])[C@@H]3C2 (some centres unmarked)
1 to 100 | 1 to 100 | 1000 to 6250 | 1000 to 6250 | NC(=O)[C@H]1[C@H]2C[C@H]3[C@H]1Nc1nc(ncc1F)Nc1cccc(c1)CCS(=O)(=O)[C@@H]3C2
1 to 100 | 1 to 100 | > 6250 | > 6250 | NC(=O)[C@H]1[C@@H]2CC3NNC(=O)Cc4cccc(c4)Nc4ncc(F)c(n4)N[C@@H]1[C@@H]3C2 (some centres unmarked)
1 to 100 | – | 1000 to 6250 | 1000 to 6250 | NC(=O)[C@H]1[C@H]2C[C@H]3[C@H]1Nc1nc(ncc1F)Nc1cccc(c1)[C@H](OCCO)CS[C@@H]3C2
1 to 100 | – | – | – | NC(=O)[C@H]1[C@H]2C[C@H]3[C@H]1Nc1nc(ncc1F)Nc1cnn(c1)CCS[C@@H]3C2
1 to 100 | – | – | – | NC(=O)[C@H]1[C@@H]2CC3CNC(=O)Cc4cccc(c4)Nc4ncc(F)c(n4)N[C@@H]1[C@@H]3C2 (some centres unmarked)
1 to 100 | – | 1000 to 6250 | 1000 to 6250 | CN1CCN(c2ccc3cc2C(=O)CS[C@@H]2C[C@@H]4C[C@H]2[C@@H](Nc2nc(ncc2F)N3)[C@H]4C(N)=O)CC1
1 to 100 | 1 to 100 | – | – | CN1CCN(c2ccc3cc2C(O)CS(=O)(=O)[C@@H]2C[C@@H]4C[C@H]2[C@@H](Nc2nc(ncc2F)N3)[C@H]4C(N)=O)CC1 (some centres unmarked)
1 to 100 | 1000 to 6250 | – | – | CN1CCN(c2ccc3cc2C(=O)CS(=O)(=O)[C@@H]2C[C@@H]4C[C@H]2[C@@H](Nc2nc(ncc2F)N3)[C@H]4C(N)=O)CC1
1 to 100 | 1 to 100 | 101 to 1000 | 101 to 1000 | CN1CCC(c2ccc3cc2OCCS[C@@H]2C[C@@H]4C[C@H]2[C@@H](Nc2nc(ncc2F)N3)[C@H]4C(N)=O)CC1
1 to 100 | 1 to 100 | 1000 to 6250 | 1000 to 6250 | NC(=O)[C@H]1[C@H]2C[C@H]3[C@H]1Nc1nc(ncc1F)Nc1cccc(c1)OCCCS[C@@H]3C2
1 to 100 | 1 to 100 | 1000 to 6250 | 1000 to 6250 | NC(=O)[C@H]1[C@@H]2C[C@H]3CNS(=O)(=O)c4cccc(c4)Nc4ncc(F)c(n4)N[C@@H]1[C@@H]3C2
1 to 100 | 1 to 100 | – | – | CN1CCN(c2ccc3cc2OCCN(C)[C@@H]2C[C@@H]4C[C@H]2[C@@H](Nc2nc(ncc2F)N3)[C@H]4C(N)=O)CC1
1 to 100 | 1 to 100 | 1000 to 6250 | 1000 to 6250 | NC(=O)[C@H]1[C@H]2C[C@H]3[C@H]1Nc1nc(ncc1F)Nc1ccc(F)c(c1)CC(=O)N[C@@H]3C2
1 to 100 | 1 to 100 | 1000 to 6250 | 1000 to 6250 | CN1CCN(c2ccc3cc2NC(=O)CN[C@@H]2C[C@@H]4C[C@H]2[C@@H](Nc2nc(ncc2F)N3)[C@H]4C(N)=O)CC1
1 to 100 | – | 1000 to 6250 | 1000 to 6250 | NC(=O)[C@H]1[C@H]2C[C@H]3[C@H]1Nc1nc(ncc1F)Nc1cccc(c1)COCc1cn(nn1)[C@@H]3C2
